{"source": "ChEMBL document CHEMBL1201862", "about": "“PubChem BioAssay data set” (2004)", "key": {"[1]": {"molecular_target": "Metabotropic glutamate receptor 5 (Rattus norvegicus, UniProt P31424)", "sequence (P31424 whole entry)": "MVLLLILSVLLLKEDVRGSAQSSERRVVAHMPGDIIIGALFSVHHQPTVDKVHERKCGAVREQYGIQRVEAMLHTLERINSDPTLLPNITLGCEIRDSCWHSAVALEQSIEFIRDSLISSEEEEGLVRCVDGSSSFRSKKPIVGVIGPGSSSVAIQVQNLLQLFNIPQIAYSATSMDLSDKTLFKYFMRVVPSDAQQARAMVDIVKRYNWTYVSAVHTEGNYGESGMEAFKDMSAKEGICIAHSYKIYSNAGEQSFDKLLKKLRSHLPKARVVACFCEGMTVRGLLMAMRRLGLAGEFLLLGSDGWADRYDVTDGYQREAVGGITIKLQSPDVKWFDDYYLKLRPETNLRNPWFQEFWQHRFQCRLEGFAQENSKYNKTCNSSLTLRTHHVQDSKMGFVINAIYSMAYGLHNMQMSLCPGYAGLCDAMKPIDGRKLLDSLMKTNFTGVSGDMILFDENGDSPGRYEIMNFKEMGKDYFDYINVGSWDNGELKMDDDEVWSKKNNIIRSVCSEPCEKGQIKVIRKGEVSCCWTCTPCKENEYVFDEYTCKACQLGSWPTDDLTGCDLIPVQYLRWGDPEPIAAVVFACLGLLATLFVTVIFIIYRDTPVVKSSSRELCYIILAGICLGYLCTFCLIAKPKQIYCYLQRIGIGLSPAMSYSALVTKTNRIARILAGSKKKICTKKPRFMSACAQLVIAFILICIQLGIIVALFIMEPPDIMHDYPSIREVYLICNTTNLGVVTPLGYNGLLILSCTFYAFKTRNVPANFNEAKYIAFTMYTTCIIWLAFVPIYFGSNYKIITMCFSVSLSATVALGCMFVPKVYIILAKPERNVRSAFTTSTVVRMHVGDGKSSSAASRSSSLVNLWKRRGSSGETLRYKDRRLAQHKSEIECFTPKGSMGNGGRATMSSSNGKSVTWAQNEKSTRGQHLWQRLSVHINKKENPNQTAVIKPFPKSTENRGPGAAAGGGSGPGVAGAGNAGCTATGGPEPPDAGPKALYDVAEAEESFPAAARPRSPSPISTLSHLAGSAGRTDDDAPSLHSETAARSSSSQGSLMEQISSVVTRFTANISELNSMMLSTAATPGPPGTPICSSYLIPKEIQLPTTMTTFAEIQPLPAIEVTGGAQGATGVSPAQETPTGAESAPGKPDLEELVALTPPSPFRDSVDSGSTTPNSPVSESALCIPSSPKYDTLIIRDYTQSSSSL", "assay": "Identification of a glycine sulfonamide based non-MPEP site positive allosteric potentiator (PAM) of mGlu5 (calcium_assay).", "assay_type": "functional"}, "[2]": {"assay": "YAP1 overexpression rescue of CTGF inhibition – DLD1 cells, RT-qPCR, cherry-pick, mechanism study for YAP1 pathway inhibitor project, dose response (AID 1053127)", "assay_type": "functional, cell-based", "details": "DLD-1"}, "[3]": {"molecular_target": "COUP transcription factor 2 (Homo sapiens, UniProt P24468)", "sequence (P24468 whole entry)": "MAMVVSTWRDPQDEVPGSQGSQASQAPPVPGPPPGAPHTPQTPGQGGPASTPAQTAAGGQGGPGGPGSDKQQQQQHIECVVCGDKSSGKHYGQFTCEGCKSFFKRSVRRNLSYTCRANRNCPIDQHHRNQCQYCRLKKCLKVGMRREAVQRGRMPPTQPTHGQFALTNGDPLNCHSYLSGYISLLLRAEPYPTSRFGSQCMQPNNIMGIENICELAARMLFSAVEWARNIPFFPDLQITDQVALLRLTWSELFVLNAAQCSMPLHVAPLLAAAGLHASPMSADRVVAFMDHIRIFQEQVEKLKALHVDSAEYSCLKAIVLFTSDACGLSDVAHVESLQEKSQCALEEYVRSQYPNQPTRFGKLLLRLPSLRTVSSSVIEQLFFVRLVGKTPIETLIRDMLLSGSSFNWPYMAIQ", "assay": "Luminescence-based cell-based high throughput dose response assay to identify inhibitors of COUP-TFII (NR2F2).", "assay_type": "functional"}, "[4]": {"molecular_target": "T1, Heat shock factor protein 1 (Mus musculus, UniProt P38532)", "T1 sequence (P38532 whole entry)": "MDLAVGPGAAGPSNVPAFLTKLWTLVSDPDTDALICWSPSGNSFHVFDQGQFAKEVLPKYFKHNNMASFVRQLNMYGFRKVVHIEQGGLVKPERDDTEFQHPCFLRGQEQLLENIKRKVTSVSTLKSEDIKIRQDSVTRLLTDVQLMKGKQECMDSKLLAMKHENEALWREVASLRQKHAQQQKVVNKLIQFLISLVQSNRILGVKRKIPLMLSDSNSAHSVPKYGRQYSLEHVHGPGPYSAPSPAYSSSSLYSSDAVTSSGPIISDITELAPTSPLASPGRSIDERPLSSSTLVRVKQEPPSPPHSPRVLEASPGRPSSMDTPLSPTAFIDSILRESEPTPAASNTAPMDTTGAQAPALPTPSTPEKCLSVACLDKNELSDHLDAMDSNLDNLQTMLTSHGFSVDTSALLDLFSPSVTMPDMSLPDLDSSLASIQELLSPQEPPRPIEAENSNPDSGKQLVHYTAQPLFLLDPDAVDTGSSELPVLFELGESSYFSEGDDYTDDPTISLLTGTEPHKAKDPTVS", "assay": "decrease of HSF1-responsive luciferase luminescence – cell-based, NIH3T3, dose retest, confirmation (AID 2382);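 note: NIH3T3 fibroblasts with HSF1-driven luciferase reporter stressed by proteasome inhibitor MG132; luminescence from HSF1-driven luciferase expression after 8 hours of MG132 stress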", "assay_type": "functional"}, "[5]": {"molecular_target": "T2, Disintegrin and metalloproteinase domain-containing protein 17 (Homo sapiens, UniProt P78536)", "T2 sequence (P78536 whole entry, the tested form may be a part)": "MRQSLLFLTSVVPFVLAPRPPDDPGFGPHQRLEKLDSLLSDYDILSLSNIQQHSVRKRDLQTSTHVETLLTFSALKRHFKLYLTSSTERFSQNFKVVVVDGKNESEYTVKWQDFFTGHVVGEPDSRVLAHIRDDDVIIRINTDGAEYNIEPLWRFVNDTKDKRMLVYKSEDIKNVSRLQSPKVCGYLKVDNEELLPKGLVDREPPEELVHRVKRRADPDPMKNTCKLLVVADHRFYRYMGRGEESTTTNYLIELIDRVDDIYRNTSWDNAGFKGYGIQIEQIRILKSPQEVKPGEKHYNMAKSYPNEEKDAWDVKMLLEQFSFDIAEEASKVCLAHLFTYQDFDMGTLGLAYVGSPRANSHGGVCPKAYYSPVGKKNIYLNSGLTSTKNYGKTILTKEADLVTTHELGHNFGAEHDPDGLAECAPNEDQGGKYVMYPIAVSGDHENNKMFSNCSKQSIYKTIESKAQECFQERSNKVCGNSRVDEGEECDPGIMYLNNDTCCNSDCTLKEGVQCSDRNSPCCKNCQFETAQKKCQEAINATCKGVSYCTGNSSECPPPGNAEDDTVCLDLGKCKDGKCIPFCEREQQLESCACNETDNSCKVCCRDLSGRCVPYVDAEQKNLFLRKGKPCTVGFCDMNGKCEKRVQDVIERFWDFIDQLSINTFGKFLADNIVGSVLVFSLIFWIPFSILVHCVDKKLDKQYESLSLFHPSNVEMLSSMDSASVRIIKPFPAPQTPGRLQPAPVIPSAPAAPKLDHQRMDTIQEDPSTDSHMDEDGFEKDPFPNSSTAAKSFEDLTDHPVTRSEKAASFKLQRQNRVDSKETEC", "assay": "inhibition of ADAM17 substrate cleavage – biochemical, quenched FRET substrate, counter-screen for ADAM10 exosite inhibitor project, dose response (AID 743253)"}, "[6]": {"assay": "toxicity toward HEK293 cells – cell-based, dry powder samples, cytotoxicity control, dose response (AID 720567)", "assay_type": "functional"}, "Protein skinhead-1": {"molecular_target": "T3, Protein skinhead-1 (Caenorhabditis elegans, UniProt P34707)", "T3 sequence (P34707 whole entry)": "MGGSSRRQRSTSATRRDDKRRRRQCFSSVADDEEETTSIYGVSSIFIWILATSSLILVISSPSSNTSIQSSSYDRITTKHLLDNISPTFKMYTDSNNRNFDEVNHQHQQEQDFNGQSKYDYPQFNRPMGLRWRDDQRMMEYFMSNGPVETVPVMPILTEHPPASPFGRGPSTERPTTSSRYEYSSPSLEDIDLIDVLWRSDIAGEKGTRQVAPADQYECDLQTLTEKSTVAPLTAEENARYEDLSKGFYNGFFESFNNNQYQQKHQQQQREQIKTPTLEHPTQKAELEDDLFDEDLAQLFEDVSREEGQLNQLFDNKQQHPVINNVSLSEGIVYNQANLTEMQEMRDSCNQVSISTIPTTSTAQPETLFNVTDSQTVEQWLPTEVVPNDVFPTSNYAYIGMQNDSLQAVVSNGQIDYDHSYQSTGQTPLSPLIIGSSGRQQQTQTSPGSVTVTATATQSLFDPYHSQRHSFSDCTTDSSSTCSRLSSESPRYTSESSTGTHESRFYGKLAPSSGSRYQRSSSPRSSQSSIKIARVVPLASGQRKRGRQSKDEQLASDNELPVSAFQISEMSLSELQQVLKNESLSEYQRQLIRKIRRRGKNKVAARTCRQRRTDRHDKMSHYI", "assay_type": "functional"}, "14-3-3 protein gamma": {"molecular_target": "T4, 14-3-3 protein gamma (Homo sapiens, UniProt P61981)", "T4 sequence (P61981 whole entry)": "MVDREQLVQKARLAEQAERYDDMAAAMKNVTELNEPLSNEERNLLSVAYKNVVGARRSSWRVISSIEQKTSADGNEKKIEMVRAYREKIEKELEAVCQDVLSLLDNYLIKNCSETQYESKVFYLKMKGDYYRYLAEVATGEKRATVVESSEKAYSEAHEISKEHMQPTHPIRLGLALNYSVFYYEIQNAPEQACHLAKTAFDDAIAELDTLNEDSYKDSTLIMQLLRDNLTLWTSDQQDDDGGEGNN", "assay": "modulators of 14-3-3 gamma client binding – dose response (AID 711)", "assay_type": "functional"}, "[7]": {"molecular_target": "Glutathione-S-transferase (Schistosoma japonicum, UniProt Q26513)", "sequence (Q26513 whole entry)": "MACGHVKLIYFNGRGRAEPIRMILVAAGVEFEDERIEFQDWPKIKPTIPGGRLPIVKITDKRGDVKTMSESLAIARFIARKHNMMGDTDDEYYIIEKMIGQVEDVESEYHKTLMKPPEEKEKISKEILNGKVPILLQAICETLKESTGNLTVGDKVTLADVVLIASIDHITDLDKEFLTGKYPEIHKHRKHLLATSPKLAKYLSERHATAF", "assay": "GST-antibody interaction or FRET quenching – biochemical, TR-FRET, artefact control for Vif-APOBEC3G degradation inhibitor project, dose response (AID 1117362)", "assay_type": "functional"}, "[8]": {"molecular_target": "FAD-linked sulfhydryl oxidase ALR (Homo sapiens, UniProt P55789)", "sequence (P55789 whole entry)": "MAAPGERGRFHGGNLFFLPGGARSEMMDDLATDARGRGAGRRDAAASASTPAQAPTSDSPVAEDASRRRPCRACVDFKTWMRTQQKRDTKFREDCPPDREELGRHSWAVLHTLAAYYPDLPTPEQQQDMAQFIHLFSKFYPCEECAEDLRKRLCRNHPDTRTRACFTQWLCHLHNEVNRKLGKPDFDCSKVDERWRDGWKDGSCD", "assay": "ALR-catalysed DTT oxidation blockers – biochemical, H2O2 detection, luminescence, cherry-pick, dose response (AID 493248)"}, "[9]": {"molecular_target": "NAD-dependent protein deacylase sirtuin-5, mitochondrial (Homo sapiens, UniProt Q9NXA8)", "sequence (Q9NXA8 whole entry)": "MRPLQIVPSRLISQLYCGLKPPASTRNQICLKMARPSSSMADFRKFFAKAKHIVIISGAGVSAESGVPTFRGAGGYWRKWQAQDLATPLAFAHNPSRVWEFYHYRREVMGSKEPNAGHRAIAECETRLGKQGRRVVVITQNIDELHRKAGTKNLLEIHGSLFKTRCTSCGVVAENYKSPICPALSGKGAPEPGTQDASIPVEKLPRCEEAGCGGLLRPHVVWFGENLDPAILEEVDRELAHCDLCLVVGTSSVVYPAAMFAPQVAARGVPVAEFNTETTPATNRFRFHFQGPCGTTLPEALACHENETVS", "assay": "sirtuin-5 deacylation blockers, concentration series – biochemical, fluorescence imaging, cherry-pick, set 5, dose response (AID 720591);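 note: desuccinylation of succinyl peptide AMC substrate read as fluorescence after trypsin release; potency of inhibitors that lower fluorescence and may act on trypsin instead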"}, "[10]": {"assay": "HEK-293T viability loss after treatment – luminescence, T-cell screen hits, cytotoxicity control for TCR NF-kB inhibitor project, dose response (AID 489026);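 note: cells exposed to compound about 14 hours before the viability readout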", "assay_type": "functional, cell-based"}, "[11]": {"assay": "viability loss in HepG2 liver cells – cell-based, ATP luminescence, cherry-pick, set 6, cytotoxicity control, dose response (AID 1053125)", "assay_type": "functional"}, "[12]": {"assay": "Luminescence Cell-Based Dose Response HTS to Identify Inhibitors of 5'UTR Stem-Loop Driven Prion Protein mRNA Translation in H4 Neuroglioblastoma Cells. [Related pubchem assays: 1827 (Project Summary), 1813 (Primary HTS)]", "assay_type": "functional"}, "[13]": {"assay": "luciferase reporter signal suppression in cells – H4 neuroglioma cells, luminescence, dose response (AID 1990)", "assay_type": "functional, cell-based"}, "[14]": {"assay": "alpha-synuclein stem-loop luciferase translation blockers – H4 neuroglioma cells, luminescence, confirmation (AID 1988)", "assay_type": "functional, cell-based"}, "Mu-type opioid receptor": {"molecular_target": "Mu-type opioid receptor (Homo sapiens, UniProt P35372)", "sequence (P35372 whole entry)": "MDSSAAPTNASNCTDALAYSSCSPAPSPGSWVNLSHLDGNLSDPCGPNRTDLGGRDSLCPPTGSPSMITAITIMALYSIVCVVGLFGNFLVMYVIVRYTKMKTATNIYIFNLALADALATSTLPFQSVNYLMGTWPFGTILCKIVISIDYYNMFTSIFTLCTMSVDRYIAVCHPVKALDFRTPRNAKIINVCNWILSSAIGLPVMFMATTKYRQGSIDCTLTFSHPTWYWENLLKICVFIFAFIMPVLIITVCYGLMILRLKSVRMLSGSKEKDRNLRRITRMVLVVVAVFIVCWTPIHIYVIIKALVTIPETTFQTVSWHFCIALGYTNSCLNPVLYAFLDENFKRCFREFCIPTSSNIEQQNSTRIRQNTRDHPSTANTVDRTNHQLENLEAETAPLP", "assay": "Late-stage results from the probe development effort to identify antagonists of OPRK1: luminescence-based cell-based dose response OPRM1 counterscreen, Set 2.", "assay_type": "functional"}, "[15]": {"molecular_target": "Delta-type opioid receptor (Homo sapiens, UniProt P41143)", "sequence (P41143 whole entry)": "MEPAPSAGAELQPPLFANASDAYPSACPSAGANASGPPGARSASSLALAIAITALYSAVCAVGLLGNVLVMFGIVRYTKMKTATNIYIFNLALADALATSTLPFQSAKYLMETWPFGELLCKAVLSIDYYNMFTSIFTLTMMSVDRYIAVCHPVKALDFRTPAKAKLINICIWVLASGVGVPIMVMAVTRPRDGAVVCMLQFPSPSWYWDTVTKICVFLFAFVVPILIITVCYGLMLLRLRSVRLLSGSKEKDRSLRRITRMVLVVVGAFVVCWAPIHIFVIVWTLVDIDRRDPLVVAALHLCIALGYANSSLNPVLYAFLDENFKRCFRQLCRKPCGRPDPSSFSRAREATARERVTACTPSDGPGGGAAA", "assay": "Late-stage results from the probe development effort to identify antagonists of OPRK1: fluorescence-based cell-based dose response OPRD1 counterscreen, Set 2.", "assay_type": "functional"}, "[16]": {"molecular_target": "Sphingosine 1-phosphate receptor 1 (Homo sapiens, UniProt P21453)", "sequence (P21453 whole entry)": "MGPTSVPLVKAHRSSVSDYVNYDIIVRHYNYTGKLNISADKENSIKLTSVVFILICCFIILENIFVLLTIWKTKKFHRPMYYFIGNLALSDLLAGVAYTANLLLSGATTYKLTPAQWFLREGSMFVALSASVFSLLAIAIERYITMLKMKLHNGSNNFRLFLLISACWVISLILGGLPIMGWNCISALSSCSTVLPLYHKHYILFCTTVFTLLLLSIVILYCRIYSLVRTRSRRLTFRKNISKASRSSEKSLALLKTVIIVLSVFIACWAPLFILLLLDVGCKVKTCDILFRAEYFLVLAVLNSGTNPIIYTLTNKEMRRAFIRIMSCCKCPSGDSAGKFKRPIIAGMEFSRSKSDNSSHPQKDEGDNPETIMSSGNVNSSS", "assay": "Late-stage counterscreen for antagonists of kappa opioid receptor 1 (OPRK1): fluorescence-based cell-based dose response assay to identify antagonists of Sphingosine 1-Phosphate Receptor 1 (S1P1).", "assay_type": "functional"}, "[17]": {"molecular_target": "Kappa-type opioid receptor (Homo sapiens, UniProt P41145)", "sequence (P41145 whole entry)": "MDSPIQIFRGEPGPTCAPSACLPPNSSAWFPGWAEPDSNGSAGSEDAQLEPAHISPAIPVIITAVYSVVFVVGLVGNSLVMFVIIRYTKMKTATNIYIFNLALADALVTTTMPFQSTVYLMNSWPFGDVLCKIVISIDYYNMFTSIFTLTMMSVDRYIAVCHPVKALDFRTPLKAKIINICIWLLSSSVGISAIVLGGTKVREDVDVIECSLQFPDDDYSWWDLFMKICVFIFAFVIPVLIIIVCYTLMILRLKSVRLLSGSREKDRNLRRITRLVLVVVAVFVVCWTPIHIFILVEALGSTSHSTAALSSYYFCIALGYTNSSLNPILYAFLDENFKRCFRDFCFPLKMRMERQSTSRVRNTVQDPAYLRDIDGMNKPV", "assay": "Late-stage fluorescence-based cell-based dose response assay for antagonists of kappa opioid receptor 1 (OPRK1).", "assay_type": "functional"}, "[18]": {"molecular_target": "T2, Disintegrin and metalloproteinase domain-containing protein 17", "assay": "exosite inhibitors of ADAM17, dose response, biochemical (AID 743260)"}, "[19]": {"assay": "inhibition of ADAM10 peptide cleavage – biochemical, FRET peptide substrate, recombinant human ADAM10, selectivity assay for ADAM17 exosite inhibitor project, dose response (AID 743259);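 note: ADAM10 enzyme cleaving a FRET peptide substrate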"}}, "note": "Activity calls are given as the source filed them. Unless noted, no cut-off for these calls is given here.", "data": [{"molecule": "CS(=O)(=O)N(CC(=O)NCC(F)(F)F)c1ccccc1Cl", "values": [{"measurement": "EC50", "setting": "[1]", "result": "10 µM (inconclusive)"}]}, {"molecule": "C[C@@H]1CN([C@@H](C)CO)C(=O)CCCn2nncc2CO[C@@H]1CN(C)C(=O)c1cc(-c2ccccc2)on1", "values": [{"measurement": "AC50", "setting": "[2]", "result": "> 26 µM (inactive)"}]}, {"molecule": "CC(C)(C)c1ccc(-c2cc(-c3ccccc3O)n[nH]2)cc1", "values": [{"measurement": "IC50", "setting": "[3]", "result": "47.8 µM (inactive)"}, {"measurement": "EC50", "setting": "[4]", "result": "1.81 µM (active)"}, {"measurement": "IC50", "setting": "[5]", "result": "> 69.6 µM (inactive)"}]}, {"molecule": "Cc1cccc(C)c1OCCNC(=O)C(=O)NCc1ccco1", "values": [{"measurement": "AC50", "setting": "[6]", "result": "> 30 µM (inactive)"}]}, {"molecule": "NC(=O)c1cc(N)ccc1N1CCCC1", "values": [{"measurement": "IC50", "setting": "Protein skinhead-1", "result": "> 100 µM (inactive)"}, {"measurement": "IC50", "setting": "14-3-3 protein gamma", "result": "18.1 µM (active)"}, {"measurement": "IC50", "setting": "[7]", "result": "12.9 µM (active)"}, {"measurement": "AC50", "setting": "[8]", "result": "4.01 µM (active)"}]}, {"molecule": "O=C(Cn1nc(-c2ccc(Cl)cc2)ccc1=O)NCC1CCCO1", "note": "(stereo not drawn)", "values": [{"measurement": "EC50", "setting": "[4]", "result": "> 195 µM (not active)"}, {"measurement": "AC50", "setting": "[9]", "result": "> 30 µM (inactive)"}]}, {"molecule": "Cc1ccc(NC(=O)Nc2ccnc(-c3cccnc3)n2)cc1", "values": [{"measurement": "IC50", "setting": "[10]", "result": "27.8 µM (inactive)"}, {"measurement": "AC50", "setting": "[11]", "result": "> 52 µM (inactive)"}, {"measurement": "EC50", "setting": "[12]", "result": "> 120 µM (not active)"}, {"measurement": "EC50", "setting": "[13]", "result": "0.983 µM (active)"}, {"measurement": "EC50", "setting": "[14]", "result": "0.87 µM (active)"}]}, {"molecule": "CN(C)c1cc(NC(=O)Nc2ccccc2)c2ccccc2n1", "values": [{"measurement": "IC50", "setting": "Mu-type opioid receptor", "result": "> 50 µM (inactive)"}, {"measurement": "IC50", "setting": "[15]", "result": "69.5 µM (inactive)"}, {"measurement": "IC50", "setting": "[16]", "result": "40 µM (inactive)"}, {"measurement": "IC50", "setting": "[17]", "result": "32.6 µM (inactive)"}]}, {"molecule": "C[C@H](CO)N1C[C@H](C)[C@H](CN(C)S(=O)(=O)c2cccs2)Oc2ccc(NC(=O)Nc3ccc4c(c3)OCO4)cc2CC1=O", "values": [{"measurement": "IC50", "setting": "[18]", "result": "> 69.5 µM (inactive)"}, {"measurement": "IC50", "setting": "[19]", "result": "13.8 µM (inactive)"}]}]}
